# Target: T1, EndoS CBM (carbohydrate binding module of endoglycosidase S) (Streptococcus pyogenes, UniProt Q99Y92)
# T1 construct: isolated CBM domain, residues 761-924, C-terminal hexahistidine tag (pET303), 15N-labelled, expressed in E. coli BL21(DE3)
# Assay: 1H, […] HSQC NMR titration
# Conditions: 0.15 mM 15N-CBM; 62.5 mM to 2 M ligand; 10 mM BisTris, pH 6.5, 15 mM NaCl, 37 °C
# T1 sequence (Q99Y92 761-924): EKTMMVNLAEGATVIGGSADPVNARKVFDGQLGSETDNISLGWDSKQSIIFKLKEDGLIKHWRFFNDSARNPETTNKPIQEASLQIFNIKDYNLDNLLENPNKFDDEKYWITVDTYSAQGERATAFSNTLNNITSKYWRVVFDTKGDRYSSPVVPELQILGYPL
smiles,measurement,value
OC[C@H]1OC(O)[C@H](O)[C@@H](O)[C@H]1O (stereo partly drawn) [D-galactose],"1H,15N HSQC NMR titration","four distinct peaks appeared upon D-galactose titration, which were visible from the lowest titration point"

# From article PMC4022860, “Fragments of Bacterial Endoglycosidase S and Immunoglobulin G Reveal Subdomains of Each That Contribute to Deglycosylation” (The Journal of Biological Chemistry, 2014)
